Data reported in patent US20100331348A1, “TROPANE DERIVATIVES USEFUL AS PESTICIDES” (SYNGENTA CROP PROTECTION, INC., priority 2007, published 2010).

Legend:
[1] = system: Puccinia recondita f.sp. tritici; test: Puccinia recondita f.sp. tritici (wheat brown rust) leaf disk assay; assay type: in vivo; settings: foliar, 216 h, preventive, nine days after inoculation, read-out: control of fungal infection, Puccinia recondita f.sp. tritici
[2] = system: Erysiphe graminis f.sp. tritici; test: Erysiphe graminis f.sp. tritici (wheat powdery mildew) leaf disk assay; assay type: in vivo; settings: Blumeria graminis, foliar, 96 h, preventive, four days after inoculation, read-out: control of fungal infection, Erysiphe graminis fsp. tritici

Row | Structure (SMILES) | pest or weed control at 200 ppm [1] [%] | pest or weed control at 200 ppm [2] [%]
1 | Fc1ccc(OC2C[C@H]3CC[C@@H](C2)N3c2ncnc3sccc23)cc1F (stereo partly shown) [Example 1.18] | ≥ 80 | ≥ 80
2 | O=C(Cc1ccccc1)c1ccc(OC2C[C@H]3CC[C@@H](C2)N3c2ncnc3sccc23)cc1 (stereo partly shown) [Example 1.257] | ≥ 80 | –
3 | CC(=O)CCc1ccc(OC2C[C@H]3CC[C@@H](C2)N3c2ncnc3sccc23)cc1 (stereo partly shown) [Example 2.40] | ≥ 80 | –
4 | FC(F)(F)c1cccc(OC2C[C@H]3CC[C@@H](C2)N3c2ccncn2)n1 (stereo partly shown) [Example 2.86] | ≥ 80 | ≥ 80
5 | COCc1ncnc(N2[C@@H]3CC[C@H]2CC(Oc2cccc(C(F)(F)F)n2)C3)c1OC (stereo partly shown) [Example 2.137] | ≥ 80 | ≥ 80
6 | Cn1cc(C(=O)N2[C@@H]3CC[C@H]2CC(Oc2cccc(C(F)(F)F)n2)C3)c(C(F)(F)F)c1 (stereo partly shown) [Example 2.197] | ≥ 80 | –
7 | CCCOC(=O)c1ccc(OC2C[C@H]3CC[C@@H](C2)N3c2ncnc3sccc23)cc1 (stereo partly shown) [Example 2.226] | ≥ 80 | –
8 | CCc1ncnc(N2C3CCC2CC(=CC(=O)NC(C)c2ccccc2)C3)c1Cl (stereo not shown) [Example 3.10] | ≥ 80 | –
9 | C(#Cc1ccccc1)CC=C1CC2CCC(C1)N2c1ncnc2sccc12 [Example 3.26] | ≥ 80 | –
10 | C#CCN(CC#C)C1C[C@H]2CC[C@@H](C1)N2c1ncnc2sccc12 (stereo partly shown) [Example 4.15] | ≥ 80 | –
11 | CCc1ncnc(N2C3CCC2CC(=NOCc2cc(C)cc(C)c2)C3)c1Cl [Example 5.11] | ≥ 80 | –
12 | CCc1ncnc(N2C3CCC2CC(=NOCc2cccc(Oc4ccccc4)c2)C3)c1Cl [Example 5.18] | ≥ 80 | ≥ 80
13 | CCc1ncnc(N2C3CCC2CC(=NOCc2ccccc2-c2ccccc2)C3)c1Cl [Example 5.35] | ≥ 80 | ≥ 80
14 | CCc1ncnc(N2C3CCC2CC(=NOCc2cccc(Cl)c2)C3)c1Cl [Example 5.37] | ≥ 80 | ≥ 80
15 | CCc1ncnc(N2C3CCC2CC(=NOCc2cccc(Br)c2)C3)c1Cl [Example 5.39] | ≥ 80 | ≥ 80
16 | CCc1ncnc(N2C3CCC2CC(=NOCc2cccc(CCl)c2)C3)c1Cl [Example 5.45] | ≥ 80 | ≥ 80
17 | CCc1ncnc(N2C3CCC2CC(=NOCc2ccccc2I)C3)c1Cl [Example 5.46] | ≥ 80 | ≥ 80
18 | CCc1ncnc(N2C3CCC2CC(=NOCc2cc(C)ccc2C)C3)c1Cl [Example 5.47] | ≥ 80 | ≥ 80
19 | C#CCON=C1CC2CCC(C1)N2c1ncnc(C(C)c2ncnc(CC)c2Cl)c1Cl (stereo not shown) [Example 5.49] | – | ≥ 80
20 | CCc1ncnc(N2C3CCC2CC(=NOCc2ccc(Cl)c(Cl)c2)C3)c1Cl [Example 5.52] | – | ≥ 80
21 | CCc1ncnc(N2C3CCC2CC(=NOCc2cc(Br)cc(Br)c2)C3)c1Cl [Example 5.53] | – | ≥ 80
22 | CCc1ncnc(N2C3CCC2CC(=NOCc2ccc(F)c(F)c2)C3)c1Cl [Example 5.56] | ≥ 80 | ≥ 80
23 | CCc1ncnc(N2C3CCC2CC(=NOCc2ccc(-c4ccccc4C#N)cc2)C3)c1Cl [Example 5.58] | ≥ 80 | ≥ 80

Row | Structure (SMILES) | pest or weed control at 200 ppm [1] [%] | pest or weed control at 200 ppm [2] [%]
24 | CCc1ncnc(N2C3CCC2CC(=NOCc2cccc(Cl)c2Cl)C3)c1Cl [Example 5.59] | ≥ 80 | ≥ 80
25 | CCc1ncnc(N2C3CCC2CC(=NOCc2cc(Cl)ccc2Cl)C3)c1Cl [Example 5.62] | – | ≥ 80
26 | CCc1ncnc(N2C3CCC2CC(=NOCc2ccc(OCc4ccccc4)cc2)C3)c1Cl [Example 5.64] | ≥ 80 | ≥ 80
27 | CCc1ncnc(N2C3CCC2CC(=NOCc2cccc(OC(F)F)c2)C3)c1Cl [Example 5.65] | ≥ 80 | ≥ 80
28 | CCc1ncnc(N2C3CCC2CC(=NOCc2cc(F)c(F)c(F)c2)C3)c1Cl [Example 5.67] | ≥ 80 | ≥ 80
29 | CCc1ncnc(N2C3CCC2CC(=NOc2cc(Cl)nc(Cl)n2)C3)c1Cl [Example 5.71] | – | ≥ 80
30 | CCc1ncnc(N2C3CCC2CC(=NOc2nc(N(C)C)cc(C(F)(F)F)n2)C3)c1Cl [Example 5.72] | – | ≥ 80
31 | CCc1ncnc(N2C3CCC2CC(=NOCc2cccc(OC(F)(F)F)c2)C3)c1Cl [Example 5.75] | – | ≥ 80
32 | CCc1ncnc(C(C)c2ncnc(N3C4CCC3CC(=NOCc3ccccc3)C4)c2Cl)c1Cl (stereo not shown) [Example 5.77] | – | ≥ 80
33 | CCc1ncnc(N2C3CCC2CC(=NOCc2cc(F)cc(F)c2F)C3)c1Cl [Example 5.80] | ≥ 80 | ≥ 80
34 | CCc1ncnc(N2C3CCC2CC(=NOCc2cc(F)ccc2Br)C3)c1Cl [Example 5.83] | ≥ 80 | –
35 | CCc1ncnc(N2C3CCC2CC(=NOCc2c(F)c(F)c(F)c(F)c2F)C3)c1Cl [Example 5.84] | ≥ 80 | ≥ 80
36 | CCc1ncnc(N2C3CCC2CC(=NOCc2ccc4ccccc4n2)C3)c1Cl [Example 5.89] | ≥ 80 | ≥ 80
37 | CCc1ncnc(N2C3CCC2CC(=NOCC2COc4ccccc4O2)C3)c1Cl (stereo not shown) [Example 5.93] | ≥ 80 | ≥ 80
38 | CCc1ncnc(N2C3CCC2CC(=NOc2cc(C)nc(SC)n2)C3)c1Cl [Example 5.94] | – | ≥ 80
39 | CCc1ncnc(N2C3CCC2CC(=NOCc2cc(F)cc(C(F)(F)F)c2)C3)c1Cl [Example 5.96] | – | ≥ 80
40 | CCc1ncnc(N2C3CCC2CC(=NOc2cc(OC)nc(OC)n2)C3)c1Cl [Example 5.97] | – | ≥ 80
41 | CCc1ncnc(N2C3CCC2CC(=NOCc2cc(F)ccc2C(F)(F)F)C3)c1Cl [Example 5.101] | – | ≥ 80
42 | CCc1ncnc(C(C)c2ncnc(N3C4CCC3CC(=NOCc3ccc(F)cc3)C4)c2Cl)c1Cl (stereo not shown) [Example 5.102] | – | ≥ 80
43 | CCc1ncnc(N2C3CCC2CC(=NOCc2cc(F)c(F)c(C(F)(F)F)c2)C3)c1Cl [Example 5.103] | – | ≥ 80
44 | CCc1ncnc(N2C3CCC2CC(=NOc2cc(Oc4ccccc4)ncn2)C3)c1Cl [Example 5.108] | – | ≥ 80
45 | CCc1ncnc(N2C3CCC2CC(=NOCc2cc(F)cc4c2OCOC4)C3)c1Cl [Example 5.121] | ≥ 80 | ≥ 80
46 | CCc1ncnc(N2C3CCC2CC(=NOc2nc(SC)nc(Cl)c2-c2ccccc2)C3)c1Cl [Example 5.125] | – | ≥ 80

Row | Structure (SMILES) | pest or weed control at 200 ppm [1] [%] | pest or weed control at 200 ppm [2] [%]
47 | CCc1ncnc(N2C3CCC2CC(=NOCc2noc(-c4ccc(C(F)(F)F)cc4)n2)C3)c1Cl [Example 5.126] | ≥ 80 | ≥ 80
48 | ON=C1CC2CCC(C1)N2c1ncnc2sccc12 [Example 5.127] | – | ≥ 80
49 | CN(C)c1cc(C(F)(F)F)nc(ON=C2CC3CCC(C2)N3c2ncnc3sccc23)n1 [Example 5.130] | – | ≥ 80
50 | Cc1cc(Cl)nc(CON=C2CC3CCC(C2)N3c2ncnc3sccc23)n1 [Example 5.132] | – | ≥ 80
51 | c1cncc(CON=C2CC3CCC(C2)N3c2ncnc3sccc23)c1 [Example 5.133] | – | ≥ 80
52 | CCc1nc(Cl)c(C)c(ON=C2CC3CCC(C2)N3c2ncnc3sccc23)n1 [Example 5.171] | – | ≥ 80
53 | COc1cc(CON=C2CC3CCC(C2)N3c2ncnc3sccc23)nc(N)n1 [Example 5.172] | ≥ 80 | ≥ 80
54 | c1ccc(-c2ccc(CON=C3CC4CCC(C3)N4c3ncnc4sccc34)cc2)cc1 [Example 5.175] | ≥ 80 | ≥ 80
55 | Cc1c(CON=C2CC3CCC(C2)N3c2ncnc3sccc23)ccc2ccccc12 [Example 5.176] | – | ≥ 80
56 | Fc1cc(Cl)cnc1ON=C1CC2CCC(C1)N2c1ncnc2sccc12 [Example 5.182] | ≥ 80 | ≥ 80
57 | FC(F)(F)c1cc(CON=C2CC3CCC(C2)N3c2ncnc3sccc23)cc(C(F)(F)F)c1 [Example 5.186] | – | ≥ 80
58 | CCc1nc(Cl)c(CC)c(ON=C2CC3CCC(C2)N3c2ncnc3sccc23)n1 [Example 5.194] | – | ≥ 80
59 | FC(F)(F)c1ccc(Cl)c(CON=C2CC3CCC(C2)N3c2ncnc3sccc23)c1 [Example 5.195] | – | ≥ 80
60 | ClCc1cccc(CON=C2CC3CCC(C2)N3c2ncnc3sccc23)c1 [Example 5.200] | – | ≥ 80
61 | N#Cc1ccccc1-c1ccc(CON=C2CC3CCC(C2)N3c2ncnc3sccc23)cc1 [Example 5.206] | ≥ 80 | –
62 | Cc1nc(ON=C2CC3CCC(C2)N3c2ncnc3sccc23)cc(N(C)C)n1 [Example 5.209] | – | ≥ 80
63 | CCCON=C1CC2CCC(C1)N2c1ccnc2c1c(C)nn2C [Example 5.244] | – | ≥ 80
64 | COc1nc(-c2ccc(C)cc2)nc(ON=C2CC3CCC(C2)N3c2ncnc3sccc23)c1C [Example 5.251] | – | ≥ 80
65 | CSc1nc(Cl)c(-c2ccccc2)c(ON=C2CC3CCC(C2)N3c2ncnc3sccc23)n1 [Example 5.254] | ≥ 80 | –
66 | CCCCCCCCC1COC2(CC3CCC(C2)N3c2ncnc3sccc23)O1 (stereo not shown) [Example 6.1] | – | ≥ 80
67 | CC(NC(=O)CC1CC2CCC(C1)N2c1ncnc2sccc12)c1ccccc1 (stereo not shown) [Example 7.13] | ≥ 80 | –
68 | CCCNC(=O)CC1CC2CCC(C1)N2c1ncnc(CC)c1Cl (stereo not shown) [Example 7.30] | ≥ 80 | –
69 | CCc1ncnc(N2C3CCC2CC(CC(=O)NC(C)c2ccccc2)C3)c1Cl (stereo not shown) [Example 7.31] | ≥ 80 | –
